The source of these data is ChEMBL document CHEMBL1138046, “Discovery of a new boron-containing antifungal agent, 5-fluoro-1,3-dihydro-1-hydroxy-2,1- benzoxaborole (AN2690), for the potential treatment of onychomycosis” (2006).

Experiment [1] relates to Cryptococcus neoformans. As to the kind of experiment: Antifungal activity against Cryptococcus neoformans. The class given is functional.
Experiment [2] deals with Trichophyton benhamiae. As to the kind of experiment: Antifungal activity against Trichophyton mentagrophytes. Type of experiment: functional, Arthroderma benhamiae.
The subject of experiment [3] is Candida albicans. The experiment can be described thus: Antifungal activity against Candida albicans. Type of experiment: functional.
Experiment [4] has as its system Trichophyton rubrum. As to the kind of experiment: Antifungal activity against Trichophyton rubrum. The class given is functional.
The subject of experiment [5] is Aspergillus fumigatus. As to the kind of experiment: Antifungal activity against Aspergillus fumigatus. The class given is functional.

In general, MIC refers to the lowest concentration found to suppress growth. Low values mean a more susceptible organism, high ones a less susceptible organism.

In brackets after ≈: the same amount, converted by molar mass.

With `OB1OCc2ccc(F)cc21`, the MIC in experiment [1] worked out at 32 mg/L (≈ 211 µM); in experiment [2], 32 mg/L (≈ 211 µM); in experiment [3], 16 mg/L (≈ 105 µM); in experiment [4], 16 mg/L (≈ 105 µM); in experiment [5], 8 mg/L (≈ 52.7 µM).

As for `Fc1ccc2c(c1)COB2c1ccsc1`, the MIC in experiment [1] turned out to be 1 mg/L (≈ 4.59 µM); in experiment [2], 4 mg/L (≈ 18.3 µM); in experiment [3], 1 mg/L (≈ 4.59 µM); in experiment [4] it was 1 mg/L (≈ 4.59 µM); in experiment [5], 1 mg/L (≈ 4.59 µM).

Turning to `OB1OCc2cc(F)ccc21` [TAVABOROLE], the MIC in experiment [1] worked out at 0.25 mg/L (≈ 1.65 µM); in experiment [2], 1 mg/L (≈ 6.58 µM); in experiment [3], 0.5 mg/L (≈ 3.29 µM); in experiment [4], 1 mg/L (≈ 6.58 µM); in experiment [5] it was 0.25 mg/L (≈ 1.65 µM).

Turning to `Fc1cccc(B2OCc3ccccc32)c1`, the MIC in experiment [1] turned out to be 4 mg/L (≈ 18.9 µM); in experiment [2], 16 mg/L (≈ 75.5 µM); in experiment [3] it was 4 mg/L (≈ 18.9 µM); in experiment [4] it was 8 mg/L (≈ 37.7 µM); in experiment [5], 8 mg/L (≈ 37.7 µM).

As for `Cc1cccc(B2OCc3cc(F)ccc32)c1`, the MIC in experiment [1] turned out to be 0.5 mg/L (≈ 2.21 µM); in experiment [2], 4 mg/L (≈ 17.7 µM); in experiment [3], 1 mg/L (≈ 4.42 µM); in experiment [4], 2 mg/L (≈ 8.85 µM); in experiment [5] it was 0.5 mg/L (≈ 2.21 µM).

For the molecule `C(=C\c1ccccc1)/B1OCc2ccccc21`, the minimum inhibitory concentration (MIC) in experiment [1] was 4 mg/L (≈ 18.2 µM); in experiment [2], 8 mg/L (≈ 36.4 µM); in experiment [3], 2 mg/L (≈ 9.09 µM); in experiment [4], 8 mg/L (≈ 36.4 µM); in experiment [5], 4 mg/L (≈ 18.2 µM).

As to `Cc1ccc2c(c1)COB2O`, the MIC in experiment [1] stood at 8 mg/L (≈ 54.1 µM); in experiment [2], 4 mg/L (≈ 27 µM); in experiment [3], 2 mg/L (≈ 13.5 µM); in experiment [4], 8 mg/L (≈ 54.1 µM); in experiment [5], 2 mg/L (≈ 13.5 µM).

For `N#Cc1ccc2c(c1)COB2O`, the MIC is 8 mg/L (≈ 50.3 µM) in experiment [1]; 16 mg/L (≈ 101 µM) in experiment [2]; 8 mg/L (≈ 50.3 µM) in experiment [3]; 16 mg/L (≈ 101 µM) in experiment [4]; 16 mg/L (≈ 101 µM) in experiment [5].

As for `c1ccc(B2OCc3ccccc32)cc1`, the MIC in experiment [1] amounted to 8 mg/L (≈ 41.2 µM); in experiment [2], 4 mg/L (≈ 20.6 µM); in experiment [3], 4 mg/L (≈ 20.6 µM); in experiment [4], 4 mg/L (≈ 20.6 µM); in experiment [5] it was 4 mg/L (≈ 20.6 µM).

For the molecule `Cc1ccc(B2OCc3cc(F)ccc32)cc1`, the MIC in experiment [1] was found to be 0.5 mg/L (≈ 2.21 µM); in experiment [2] it was 2 mg/L (≈ 8.85 µM); in experiment [3] it was 0.5 mg/L (≈ 2.21 µM); in experiment [4] it was 2 mg/L (≈ 8.85 µM); in experiment [5] it was 0.5 mg/L (≈ 2.21 µM).

Take `Fc1ccc2c(c1)COB2c1ccccc1`: the MIC amounted to 2 mg/L (≈ 9.43 µM) in experiment [1]; 2 mg/L (≈ 9.43 µM) in experiment [2]; 0.5 mg/L (≈ 2.36 µM) in experiment [3]; 1 mg/L (≈ 4.72 µM) in experiment [4]; 2 mg/L (≈ 9.43 µM) in experiment [5].

Turning to `Fc1ccc(B2OCc3ccccc32)cc1`, the MIC amounted to 2 mg/L (≈ 9.43 µM) in experiment [1]; 4 mg/L (≈ 18.9 µM) in experiment [2]; 4 mg/L (≈ 18.9 µM) in experiment [3]; 8 mg/L (≈ 37.7 µM) in experiment [4]; 2 mg/L (≈ 9.43 µM) in experiment [5].

`Fc1ccc2c(c1)COB2c1cccnc1`: the minimal inhibitory concentration (MIC) in experiment [1] amounted to 16 mg/L (≈ 75.1 µM); in experiment [2] it was 32 mg/L (≈ 150 µM); in experiment [3] it was 4 mg/L (≈ 18.8 µM); in experiment [4] it was 16 mg/L (≈ 75.1 µM); in experiment [5], 16 mg/L (≈ 75.1 µM).

`OB1OCc2cc(C(F)(F)F)ccc21`: the minimum inhibitory concentration (MIC) amounted to 16 mg/L (≈ 79.2 µM) in experiment [1]; 8 mg/L (≈ 39.6 µM) in experiment [2]; 16 mg/L (≈ 79.2 µM) in experiment [3]; 8 mg/L (≈ 39.6 µM) in experiment [4]; 8 mg/L (≈ 39.6 µM) in experiment [5].

For `Fc1ccc2c(c1)COB2c1cccc(Cl)c1`, the MIC is 0.5 mg/L (≈ 2.03 µM) in experiment [1]; 8 mg/L (≈ 32.5 µM) in experiment [2]; 0.25 mg/L (≈ 1.01 µM) in experiment [3]; 4 mg/L (≈ 16.2 µM) in experiment [4]; 2 mg/L (≈ 8.11 µM) in experiment [5].

For the molecule `Fc1ccc2c(c1)COB2/C=C/c1ccccc1`, the MIC in experiment [1] was 0.5 mg/L (≈ 2.1 µM); in experiment [2] it was 2 mg/L (≈ 8.4 µM); in experiment [3], 0.5 mg/L (≈ 2.1 µM); in experiment [4], not above 1 mg/L; in experiment [5], 1 mg/L (≈ 4.2 µM).

Regarding `CC1OB(O)c2ccc(F)cc21` (stereo not given), the MIC in experiment [1] is 32 mg/L (≈ 193 µM); in experiment [2] it was 16 mg/L (≈ 96.4 µM); in experiment [3], 16 mg/L (≈ 96.4 µM); in experiment [4] it was 32 mg/L (≈ 193 µM); in experiment [5], 16 mg/L (≈ 96.4 µM).

For `OB1OCCc2cc(F)ccc21`, the MIC in experiment [1] is more than 64 mg/L; in experiment [2], 32 mg/L (≈ 193 µM); in experiment [3], 64 mg/L (≈ 386 µM); in experiment [4], 32 mg/L (≈ 193 µM); in experiment [5], 32 mg/L (≈ 193 µM).

`Clc1cccc(B2OCc3ccccc32)c1`: the MIC in experiment [1] came to 4 mg/L (≈ 17.5 µM); in experiment [2], 8 mg/L (≈ 35 µM); in experiment [3] it was 8 mg/L (≈ 35 µM); in experiment [4], 16 mg/L (≈ 70 µM); in experiment [5], 8 mg/L (≈ 35 µM).

`OB1OCc2cccc(F)c21`: the MIC stood at 32 mg/L (≈ 211 µM) in experiment [1]; 16 mg/L (≈ 105 µM) in experiment [2]; 32 mg/L (≈ 211 µM) in experiment [3]; 16 mg/L (≈ 105 µM) in experiment [4]; 4 mg/L (≈ 26.3 µM) in experiment [5].

For the molecule `OB1OCc2ccc3ccccc3c21`, the MIC is 32 mg/L (≈ 174 µM) in experiment [1]; 2 mg/L (≈ 10.9 µM) in experiment [2]; 32 mg/L (≈ 174 µM) in experiment [3]; 4 mg/L (≈ 21.7 µM) in experiment [4]; 32 mg/L (≈ 174 µM) in experiment [5].

For the molecule `Cc1cc(C2CCCCC2)n(O)c(=O)c1` [CICLOPIROX], the MIC in experiment [1] was found to be 0.5 mg/L (≈ 2.41 µM); in experiment [2] it was 0.5 mg/L (≈ 2.41 µM); in experiment [3] it was 0.5 mg/L (≈ 2.41 µM); in experiment [4] it was 0.5 mg/L (≈ 2.41 µM); in experiment [5], 1 mg/L (≈ 4.82 µM).

As to `Fc1ccc2c(c1)CCOB2c1ccccc1`, the MIC in experiment [1], in experiment [2], in experiment [3], in experiment [4] and in experiment [5] was 8 mg/L (≈ 35.4 µM) in each case.

For `C=CB1OCc2cc(F)ccc21`, the MIC was found to be 4 mg/L (≈ 24.7 µM) in experiment [1]; 2 mg/L (≈ 12.3 µM) in experiment [2]; 1 mg/L (≈ 6.17 µM) in experiment [3]; 4 mg/L (≈ 24.7 µM) in experiment [4]; 2 mg/L (≈ 12.3 µM) in experiment [5].

Regarding `OB1OCc2c(F)cccc21`, the MIC stood at 32 mg/L (≈ 211 µM) in experiment [1]; 16 mg/L (≈ 105 µM) in experiment [2]; 64 mg/L (≈ 421 µM) in experiment [3]; 16 mg/L (≈ 105 µM) in experiment [4]; 32 mg/L (≈ 211 µM) in experiment [5].

Consider `OCc1ccc2c(c1)COB2O`, for which the MIC in experiment [1] was more than 64 mg/L; in experiment [2], 64 mg/L (≈ 390 µM); in experiment [3], more than 64 mg/L; in experiment [4], 64 mg/L (≈ 390 µM); in experiment [5], more than 64 mg/L.

On to `OB1OCc2cc(Cl)ccc21` [AN-2718], for which the MIC in experiment [1] came to 2 mg/L (≈ 11.9 µM); in experiment [2], 2 mg/L (≈ 11.9 µM); in experiment [3] it was 1 mg/L (≈ 5.94 µM); in experiment [4] it was 1 mg/L (≈ 5.94 µM); in experiment [5] it was 1 mg/L (≈ 5.94 µM).

As to `Fc1ccc(B2OCc3cc(F)ccc32)cc1`, the MIC in experiment [1] was 1 mg/L (≈ 4.35 µM); in experiment [2], 4 mg/L (≈ 17.4 µM); in experiment [3], 1 mg/L (≈ 4.35 µM); in experiment [4], 4 mg/L (≈ 17.4 µM); in experiment [5] it was 2 mg/L (≈ 8.69 µM).

Take `OB1OCc2ccccc21` [BENZOXABOROLE]: the MIC in experiment [1] amounted to 1 mg/L (≈ 7.47 µM); in experiment [2], 4 mg/L (≈ 29.9 µM); in experiment [3] it was 2 mg/L (≈ 14.9 µM); in experiment [4], 8 mg/L (≈ 59.7 µM); in experiment [5], 2 mg/L (≈ 14.9 µM).

With `Fc1cccc(B2OCc3cc(F)ccc32)c1`, the MIC in experiment [1] was found to be 1 mg/L (≈ 4.35 µM); in experiment [2], 2 mg/L (≈ 8.69 µM); in experiment [3] it was 0.5 mg/L (≈ 2.17 µM); in experiment [4] it was 1 mg/L (≈ 4.35 µM); in experiment [5], 1 mg/L (≈ 4.35 µM).

For `c1ccc(B2OCCc3ccccc32)cc1`, the MIC in experiment [1] was 16 mg/L (≈ 76.9 µM); in experiment [2], 8 mg/L (≈ 38.4 µM); in experiment [3], 8 mg/L (≈ 38.4 µM); in experiment [4], 8 mg/L (≈ 38.4 µM); in experiment [5] it was 16 mg/L (≈ 76.9 µM).

Regarding `Cc1cscc1B1OCc2cc(F)ccc21`, the MIC in experiment [1] turned out to be 1 mg/L (≈ 4.31 µM); in experiment [2] it was 2 mg/L (≈ 8.62 µM); in experiment [3] it was 1 mg/L (≈ 4.31 µM); in experiment [4] it was 1 mg/L (≈ 4.31 µM); in experiment [5] it was 1 mg/L (≈ 4.31 µM).

In the case of `Fc1ccc2c(c1)COB2c1ccoc1`, the MIC in experiment [1], in experiment [2], in experiment [3], in experiment [4] and in experiment [5] was 4 mg/L (≈ 19.8 µM) throughout.

As to `OB1OCc2cc(F)c(F)cc21`, the MIC in experiment [1] stood at 2 mg/L (≈ 11.8 µM); in experiment [2], 4 mg/L (≈ 23.5 µM); in experiment [3], 4 mg/L (≈ 23.5 µM); in experiment [4] it was 4 mg/L (≈ 23.5 µM); in experiment [5] it was 2 mg/L (≈ 11.8 µM).
